# Measurements: patent US12440466B2, “Fatty acid derivatives for treating non-alcoholic steatohepatitis” (BASF AS, priority 2017, dated 2025)
# Marks after values point to notes of the source that are not given here.
# Tests used:
# CDAA/high-fat fed mice [1] = test: Hepatic hydroxyproline (HYP) content, CDAA/high-fat diet induced NASH mouse model; assay type: in vivo
# Source text: Mouse models that are deficient in methionine and/choline (MCD and CDAA respectively) are well established for studying the development and treatment of NASH in pre-clinical drug development. As precursors for the synthesis of phosphatidylcholine, a dietary deficiency of methionine/choline leads to an inability to synthesize hepatic lipoproteins for the export of triglyceride that results in severe hepatic steatosis, inflammation and fibrosis.
# Although the widely used methionine-choline deficient (MCD) diet consistently reproduces severe NASH-like hepatic inflammation and fibrosis in mice, it is also associated with severe weight-loss (loss of both skeletal muscle and fat mass). This is associated with an increased risk of death which presents major problems for long-term fibrogenesis experiments.
# (§1) In Biological Examples 1-7, studies were performed in male C56BL/6J mice (9 weeks old). Mice were fed either choline-sufficient (CS) or choline deficient high-fat diets (31% total calories; “CDAA/high-fat”). The NASH inducing diet was instigated 6 weeks prior to the commencement of treatment in order to design the study as a treatment/reversal set-up rather than prophylaxis.
# (§2) In Biological Examples 1-5, mice were divided into 6 experimental groups (n=9 per group) and fed either CS or CDAA/high-fat diets. After 6 weeks of either the CS- or CDAA diet, mice were orally administered Compound A or comparison Compound N, both at 2 doses, 0.15 mmol/kg bw/day (low-dose, LD) and 0.3 mmol/kg bw per day (high-dose, HD). The test substances were administered orally as admix to the high-fat diet. Hepatic fibrosis was assessed by both measurement of hydroxyproline (HYP) content and Sirius Red (SR) morphometry. Fibrosis, inflammation and metabolism related transcripts levels were measured by quantitative real-time polymerase chain reaction (qPCR).
# TNF-α mRNA = test: Hepatic TNF-α mRNA expression by qPCR, CDAA/high-fat diet mouse model; assay type: in vivo; details: CDAA/high-fat fed mice
# Source text: (§3) Mice were fed either choline-sufficient (CS) or choline deficient high-fat diets (31% total calories; “CDAA/high-fat”). The NASH inducing diet was instigated 6 weeks prior to the commencement of treatment in order to design the study as a treatment/reversal set-up rather than prophylaxis.
# as §2, with “After” for “In Biological Examples 1-5, mice were divided into 6 experimental groups (n=9 per group) and fed either CS or CDAA/high-fat diets. After”
# (§4) Studies were performed in male C56BL/6J mice (9 weeks old). Mice were divided into 6 experimental groups (n=9 per group) containing either CS or CDAA/high-fat diets, as described above. The NASH inducing CDAA/high fat diet was instigated 6 weeks prior to the commencement of treatment in order to assess treatment/reversal rather than prophylaxis. […] Compound A was administered orally as admix to the high-fat diet whilst GLP-1 agonist was delivered via intraperitoneal injection (i.p.). Fibrosis, inflammation and metabolism related transcripts levels were measured by quantitative real-time polymerase chain reaction (qPCR) in isolated liver tissue.
# Col1a1 mRNA = test: Hepatic Col1a1 mRNA expression by qPCR, CDAA/high-fat diet mouse model; assay type: in vivo; details: CDAA/high-fat fed mice
# Source text: as §3
# as §2, with “After” for “In Biological Examples 1-5, mice were divided into 6 experimental groups (n=9 per group) and fed either CS or CDAA/high-fat diets. After”
# as §4
# APOE*3Leiden.CETP mice [2] = test: Hepatocellular hypertrophy grading in APOE*3Leiden.CETP double transgenic mice; assay type: in vivo, mouse; details: APOE*3Leiden.CETP mice on high fat/cholesterol diet; 0.3 mmol/kg bw per day by gavage; 20 weeks
# Source text: The APOE*3Leiden.CETP double transgenic mouse expresses a variant of the human apolipoprotein E3 (APOE3), the APOE*3Leiden, in addition to the human apolipoprotein C1 (APOC1) and CETP. […] By increasing the cholesterol content of the diet in this model, all the characteristics of human NASH develop.
# In one study (using 1% cholesterol w/w), after a 3 weeks run-in period low-responder mice (20% of total) were removed from the study and the remaining mice were sub-divided into 4 groups of 12 mice each (+5 in the control group), matched for plasma cholesterol, triglycerides, blood glucose, body weight and age (t=0) and treatment was started. The mice received a daily gavage between 07hr00 and 10hr00 with either Compound A at 0.3 mmol/kg bw per day, the comparison compound Compound N (0.3 mmol/kg bw per day), rosiglitazone (13 mg/kg bw per day) or control (corn oil). After 20 weeks of treatment mice were sacrificed by CO2 asphyxiation, the liver was collected and the level of hepatocellular hypertrophy was graded.
# APOE*3Leiden.CETP mice [3] = details: WO2016173923A1, cited from earlier work
# CDAA/high-fat fed mice [4] = test: Hepatic lipidomic analysis, CDAA/high-fat diet mouse model; assay type: in vivo; details: Compound A 112 mg/kg bw per day or equimolar EPA, orally
# Protocol: as §1
# In Biological Example 7, after 6 weeks of either the CS or CDAA/high-fat diet, mice were administered 112 mg/kg bw per day of Compound A, or an equimolar dose of eicosapentaenoic acid (EPA), delivered orally. Hepatic lipidomic analysis was performed in isolated liver samples from CS (n=9), Compound A (n=9) and EPA (n=8) groups.
# To further understand the effects of Compound A on hepatic lipid metabolism, lipidomic analysis of CS- and CDAA/high-fat fed mice (“CD”) was performed in isolated liver tissue.
# [5] = test system: LX-2 human hepatic stellate cells; test: LX-2 stellate cell proliferation by BrdU incorporation; assay type: cell-based; details: LX-2 cells; 24 hours; OA 75 μM
# Protocol: (§5) Stellate cells are resident liver cells and the major cell type involved in the initiation and progression of liver fibrosis. In Biological Example 20, in vitro studies were performed on cultured human stellate cells (LX-2 cells) to assess direct effects of Compound A on these cells. Cells were treated for 24 hours with Compound A (10 μM, 25 μM, 50 μM, or 75 μM) or oleic acid (OA; 75 μM) and bromodeoxyuridine (BrdU) incorporation was assessed to determine effects on proliferation. A MTS (3-(4,5-dimethylthiazol-2-yl)-5-(3-carboxymethoxyphenyl)-2-(4-sulfophenyl)-2H-tetrazolium) assay was used to determine cell viability.
# (§6) Cell proliferation of LX-2 human hepatic stellate cells treated for 24 hours with 10-75 μM of Compound A or oleic acid (OA) (75 μM) was assessed by BrdU incorporation. The results are normalised mean values ±S.E.M. of 5 independent experiments for icosabutate and 2 independent experiments for OA. […] The reduction in proliferation by Compound A was 25-34% at 24 hours whereas OA had no effect. The comparisons were made by one-way ANOVA with Dunnett's correction for multiple comparisons.
# [6] = test system: LX-2 human hepatic stellate cells; test: LX-2 cell viability by MTS assay; assay type: cell-based; details: LX-2 cells; 24 hours; Compound A 10-75 μM, OA 75 μM
# Protocol: as §5, §6
# [7] = Body weight, liver weight and food intake in ob/ob AMLN mice; assay type: in vivo, mouse
# Protocol: (§7) Obese diet-induced B6.V-Lepob/Jrj mice (ob/ob) are consistently fibrosis (liver) prone when cholesterol (2%), 40% fat (containing 18% trans-fatty acids) and 20% fructose are added to a high-caloric diet (i.e., AMLN high-fat diet). ob/ob mice on AMLN diet (termed ‘ob/ob AMLN mice’) develop steatohepatitis and fibrosis within a shorter timeframe ([…]) compared with wild-type C57BL/6 mice (AMLN mice) fed the same diet. ob/ob AMLN mice provide an obese diet-induced model of NASH that also allows the study of effects on glycemic control. Development of NASH in the ob/ob AMLN model is confirmed by biopsy.
# In Biological Examples 10-12, 15, and 19, studies were performed in male ob/ob mice (5 weeks old) fed an AMLN high-fat diet for 15 weeks, then randomized into 3 groups (n=10 per group) to receive either 112 mg/kg bw per day of Compound A via diet, 30 mg/kg bw per day pioglitazone via diet or no treatment (vehicle) for a further 4 weeks. An oral glucose tolerance test (OGTT) was performed at week 3. Hepatic fibrosis was assessed via measurements of hepatic fibrogenic/fibrolytic gene expression by RNA sequencing at 4 weeks.
# (§8) In Biological Examples 10, 13-14, and 16-18, studies were performed in male ob/ob mice (5 weeks old) fed an AMLN high-fat diet for 18 weeks, then randomized into 6 groups (n=10 per group) to receive either Compound A (at 3 different daily doses, 45 mg/kg, 90 mg/kg or 135 mg/kg) via diet, 30 mg/kg bw per day obeticholic acid (OCA) via diet, or no treatment (vehicle) for a further 8 weeks. Assessment of NASH related parameters and fibrosis was made at study end by quantitative immune histochemistry (IHC) measurements.
# [8] = test system: α-smooth muscle actin (SMA); test: Hepatic α-SMA content by quantitative IHC in ob/ob AMLN mice; assay type: in vivo, mouse; details: 8 weeks, OCA 30 mg/kg
# Protocol: as §7, §8
# col1A1 = test: Hepatic col1A1 content by quantitative IHC in ob/ob AMLN mice; assay type: in vivo, mouse; details: 8 weeks, OCA 30 mg/kg
# Protocol: as §7, §8
# ob/ob AMLN mice = test: Plasma ALT and AST (hepatocellular damage) in ob/ob AMLN mice; assay type: in vivo, mouse; details: 8 weeks, OCA 30 mg/kg
# Protocol: as §7, §8
# To assess the effects of Compound A and pioglitazone on hepatocellular injury or damage in ob/ob AMLN mice, plasma alanine aminotransferase (ALT) and aspartate transaminase (AST) were measured after 8 weeks of administration.
# STAM (model) mice [9] = test: NAFLD activity score (NAS) in streptozotocin/high-fat diet NASH model (STAM model); assay type: in vivo, mouse; details: 6 weeks treatment, Compound A 37 mg/kg/day oral gavage, telmisartan positive control
# Source text: (§9) In Biological Example 8, pathogen-free 15-day-pregnant C57BL/6 mice were obtained from Charles River Laboratories in Japan Inc. (Kanagawa, Japan). NASH was established in male mice by a single subcutaneous injection of streptozotocin (STZ) (Sigma, USA) after birth and feeding with a high fat diet (HFD; CLEA) Japan, Japan) ad libitum after 4 weeks of age (day 28±2). Mice were randomised into 3 groups of 8 mice at 6 weeks of age the day before the start of treatment: vehicle (saline), Compound A and telmisartan (positive control). Treatment with Compound A at a dose of 37 mg/kg bw per day via oral gavage in conjunction with a high-fat diet was given for 6 weeks before sacrifice. NAFLD activity score (NAS) was calculated according to standardised criteria and fibrosis area was assessed via Sirius Red staining.
# STAM (model) mice [10] = test: Fibrosis area by Sirius Red staining, STAM model; assay type: in vivo, mouse; details: Sirius Red positive area, 6 weeks treatment, Compound A 37 mg/kg/day oral gavage
# Source text: as §9
# [11] = 8 weeks, Compound A 45, 90 and 135 mg/kg, OCA 30 mg/kg bw per day
structure (smiles),measurement,setting,value
"CC/C=C\C/C=C\C/C=C\C/C=C\C/C=C\CCCCSC(CC)(CC)C(=O)O [Compound N, 2-ethyl-2-((5Z,8Z,11Z,14Z,17Z)-icosa-5,8,11,14,17-pentaenylthio)butanoic acid, reference compound]",Hydroxyproline (μg) content per 100 mg liver,CDAA/high-fat fed mice [1]; HD 0.3 mmol/kg bw per day orally as admix to diet,54 μg HYP/per 100 mg liver
same,Hydroxyproline (μg) content per 100 mg liver,CDAA/high-fat fed mice [1]; LD 0.15 mmol/kg bw/day orally as admix to diet,48 μg HYP/per 100 mg liver
same,Hydroxyproline (μg) content per liver,CDAA/high-fat fed mice [1]; high dose (HD) 0.3 mmol/kg bw per day orally as admix to diet,950 µg
same,Hydroxyproline (μg) content per liver,CDAA/high-fat fed mice [1]; low dose (LD) 0.15 mmol/kg bw/day orally as admix to diet,1100 µg
same,TNF-a (relative mRNA expression),TNF-α mRNA; HD 0.3 mmol/kg bw per day,1.2
same,TNF-a (relative mRNA expression),TNF-α mRNA; LD 0.15 mmol/kg bw/day,1***
same,Col1a1 (relative mRNA expression),Col1a1 mRNA; HD 0.3 mmol/kg bw per day,16
same,Col1a1 (relative mRNA expression),Col1a1 mRNA; LD 0.15 mmol/kg bw/day,15
same,Decrease in hypertrophy vs. control (%),APOE*3Leiden.CETP mice [2],7%
same,Hepatocellular hypertrophy,APOE*3Leiden.CETP mice [2],42.9 ± 29.7
same,fibrosis (hydroxyproline/proline ratio),APOE*3Leiden.CETP mice [3]; APOE*3Leiden.CETP mice,had efficacy in reducing fibrosis
same,influx of inflammatory cells into the liver,APOE*3Leiden.CETP mice [3],prevented the influx of inflammatory cells into the liver
"CC/C=C\C/C=C\C/C=C\C/C=C\C/C=C\CCCC(=O)O [EPA, (5Z,8Z,11Z,14Z,17Z)-icosa-5,8,11,14,17-pentaenoic acid, reference compound]",hepatic cholesteryl ester,CDAA/high-fat fed mice [4],did not reduce
same,hepatic diglycerides (DG),CDAA/high-fat fed mice [4],did not reduce
same,hepatic free fatty acids (FFA),CDAA/high-fat fed mice [4],did not reduce
same,hepatic triglyceride (TG),CDAA/high-fat fed mice [4],did not reduce
"CCCCCCCC/C=C\CCCCCCCC(=O)O [OA, oleic acid, reference compound]",proliferation (BrdU incorporation),[5],no effect
same,cell viability (MTS assay),[6],neither Compound A nor OA showed a significant effect
"CC[C@H]1[C@@H](O)[C@@H]2[C@H](CC[C@]3(C)[C@@H]([C@H](C)CCC(=O)O)CC[C@@H]23)[C@@]2(C)CC[C@@H](O)C[C@@H]12 [OCA, reference compound]",body weight,[7]; [11],"neither Compound A (45 mg/kg, 90 mg/kg, and 135 mg/kg) nor OCA significantly affected body weight"
same,food intake,[7]; [11],not affected
same,area percentage of α-SMA content compared to pre-treatment biopsy,[8],no significant effect
same,total col1A1 content,col1A1,no significant effect
same,plasma ALT,ob/ob AMLN mice,no effect
same,plasma AST,ob/ob AMLN mice,no effect
"CCCc1nc2c(C)cc(-c3nc4ccccc4n3C)cc2n1Cc1ccc(-c2ccccc2C(=O)O)cc1 [Telmisartan, reference compound]",Hepatocellular ballooning,STAM (model) mice [9],0.8
same,Lobular inflammation,STAM (model) mice [9],0.45
same,NAS score (mean ± SD),STAM (model) mice [9],1.8 ± 0.8
same,Steatosis,STAM (model) mice [9],0.7
same,Fibrosis area (%),STAM (model) mice [10],0.44%
"CCc1ccc(CCOc2ccc(CC3SC(=O)NC3=O)cc2)nc1 (stereo not drawn) [pioglitazone, reference compound]",increase in bodyweight,"[7]; 4 weeks, pioglitazone 30 mg/kg bw per day, p<0.01",15%
